Results published in article PMC12197660 (Viruses, 2025).
Values after ≈ are worked out from the molar mass of the structure shown. Like-named read-outs stand apart in the source and are kept apart here.

Assays:
CatA = target: T1, CatA (Homo sapiens, UniProt P10619); assay: Enzyme hydrolysis phenotype, fraction metabolized by CatA; format: in vitro ADME
T1 sequence (P10619 29-480): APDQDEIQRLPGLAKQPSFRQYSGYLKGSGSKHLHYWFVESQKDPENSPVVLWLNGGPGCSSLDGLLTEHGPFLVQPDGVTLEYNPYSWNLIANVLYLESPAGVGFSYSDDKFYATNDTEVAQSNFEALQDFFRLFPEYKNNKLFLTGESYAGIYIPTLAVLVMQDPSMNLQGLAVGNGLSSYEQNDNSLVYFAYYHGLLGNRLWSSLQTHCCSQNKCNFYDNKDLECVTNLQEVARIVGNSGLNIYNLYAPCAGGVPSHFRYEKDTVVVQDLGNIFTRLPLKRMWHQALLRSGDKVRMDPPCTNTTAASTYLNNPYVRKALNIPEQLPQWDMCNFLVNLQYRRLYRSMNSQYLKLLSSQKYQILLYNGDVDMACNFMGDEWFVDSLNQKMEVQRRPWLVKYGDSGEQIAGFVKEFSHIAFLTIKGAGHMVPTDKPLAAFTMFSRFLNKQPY

[1] = cited from earlier work
[2] = Hepatic S9 fraction stability; format: in vitro ADME, rat, dog, monkey, and human
Solubility (PBS) = format: physicochemical; conditions: aqueous buffer
[3] = cynomolgus monkey, in vivo, iv, 10 mg/kg, 24 h
[4] = system: OATP1B1/3, P-gp, BCRP, ENT1/2, CNT3; conditions: cited from earlier work
[5] = Permeability (MDCK A-to-B); format: in vitro ADME, canine; conditions: dog, MDCK-MDR1, pH 7.4
[6] = in vivo, cyno; cited from earlier work
[7] = Plasma stability, human plasma; format: in vitro ADME; conditions: human, plasma
[8] = in vivo, iv; cited from earlier work
LogD = format: physicochemical
in vivo = format: in vivo, cynomolgus monkeys; conditions: cynomolgus monkey, in vivo, iv, 10 mg/kg
[9] = system: OATP1B1/3, P-gp, BCRP, ENT1/2, CNT3; assay: Transporter substrate assessment; format: in vitro ADME, human; conditions: human
plasma protein = assay: Plasma protein binding; format: in vitro ADME, mouse, rat, dog, monkey, and human; conditions: plasma
[10] = Plasma stability (Table 1, across species); format: in vitro ADME, mouse, rat, dog, monkey, and human
[11] = Plasma stability, cynomolgus monkey plasma; format: in vitro ADME; conditions: cynomolgus monkey, plasma
[12] = Radiolabeled metabolism and excretion in rats; format: in vivo; conditions: male, Sprague Dawley, rat, in vivo, iv
CES-1 = target: T2, CES-1 (Homo sapiens, UniProt P23141); assay: Enzyme hydrolysis phenotype, fraction metabolized by CES-1; format: in vitro ADME
T2 sequence (P23141 18-567): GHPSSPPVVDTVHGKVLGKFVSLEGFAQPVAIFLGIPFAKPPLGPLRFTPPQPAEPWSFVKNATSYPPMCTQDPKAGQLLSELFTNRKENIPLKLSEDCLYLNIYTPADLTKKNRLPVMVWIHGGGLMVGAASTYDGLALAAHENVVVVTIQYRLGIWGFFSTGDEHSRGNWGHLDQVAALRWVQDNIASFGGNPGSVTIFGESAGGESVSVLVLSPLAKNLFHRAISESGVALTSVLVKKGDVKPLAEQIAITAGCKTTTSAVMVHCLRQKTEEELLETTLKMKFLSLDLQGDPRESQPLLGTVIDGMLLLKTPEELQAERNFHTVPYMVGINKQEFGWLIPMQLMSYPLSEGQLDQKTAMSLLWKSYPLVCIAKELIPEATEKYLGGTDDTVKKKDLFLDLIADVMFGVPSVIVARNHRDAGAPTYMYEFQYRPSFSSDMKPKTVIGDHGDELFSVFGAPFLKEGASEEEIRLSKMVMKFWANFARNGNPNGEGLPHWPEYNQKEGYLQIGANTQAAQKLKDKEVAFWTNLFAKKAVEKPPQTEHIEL

CCC(CC)COC(=O)[C@H](C)N[P@](=O)(OC[C@H]1O[C@@](C#N)(c2ccc3c(N)ncnn23)[C@H](O)[C@@H]1O)Oc1ccccc1 [RDV, remdesivir, reference compound]
Enzyme hydrolysis phenotype (fm), CatA (CatA): 10%
Stability in hepatic S9 [1]: unstable
S9 Stability, Hepatic [2]: Unstable
solubility (Solubility (PBS)): 40.1 µg/mL (≈ 66.5 µM)
Lung GS-443902 C24h [3]: 1.39 ± 0.15 nmol/g
PBMC GS-443902 C24h [3]: 31.0 ± 11.8 µM
Transporter substrate (text) [4]: substrate for both OATP1B1 and P-gp
Papp A→B at 120 min [5]: 1.32 ×10⁻⁶ cm/s
Oral bioavailability [6]: < 1%
half-life at 2 µM [7]: 1.3 h
Fecal excretion, of administered dose [8]: ~18%
Total mean [14C] dose recovery [8]: greater than 90%
Urinary excretion, mean [8]: 74%
Predicted human hepatic extraction: > 0.9
logD (LogD): 2.5
Vd (in vivo): 0.504 ± 0.175 L/kg
clearance (in vivo): 40 mL/min/kg
Transporter substrate [9]: OATP1B1/P-gp
Plasma protein binding (% free) (plasma protein): 6–14 % free
Plasma stability [10]: Moderately Stable (unstable in mouse, rat)
half-life at 2 µM [11]: 6.42 h
Fecal excretion, of administered dose [12]: approximately 25%
Total mean [14C] dose recovery [12]: greater than 90%
Urinary excretion, mean [12]: 61%
Enzyme hydrolysis phenotype (fm), CES-1 (CES-1): 80%
